Measurements published in patent US20150025143A1, “BETA-HYDROXY-BETA-METHYLBUTYRIC ACID FOR IMPROVING GLUCOSE TOLERANCE” (ABBOTT LABORATORIES, priority 2012, published 2015).

Key:
[1] = system: C57BL/6J mice; experiment: oral glucose tolerance after nine weeks of supplemented feeding and exercise; format: in vivo; details: 3.4 mg/g of pediatric nutritional supplement, fed nine weeks with exercise; oral glucose 2 g/Kg; compared to rodent pellet feed control, pediatric nutritional supplement control and both leucine groups (5 and 10 mg/g); FIG. 1
Description: In this Example, the effect of (1) HMB and (2) leucine on muscle glucose tolerance was analyzed in an in vivo study.
C57BL/6J mice (Charles River Laboratories, Wilmington Mass.), 21 days post-weaning, were fed either a commercially available pediatric nutritional supplement supplemented with either (1) calcium HMB or (2) leucine, and required to exercise, for nine weeks. […]
Following the nine weeks, the mice were kept overnight for fasting and body weight was recorded. […] Before glucose administration, the blood glucose was measured by tail snip using one-touch ultra Glucometer and glucose strips.
All test groups were orally administered the glucose solution at a concentration of 2 g/Kg body weight. […] After oral glucose administration, blood glucose levels were analyzed at different time points (i.e., 15, 30, 60, 90, and 120 minutes) using Glucometer and glucose strips.

[2] = system: Spragley-Dawley (SD) rats; experiment: effect of an acute oral dose given before a glucose load on the blood glucose spike (lowering glycemic index); format: in vivo; details: given 30 minutes before glucose load of approximately 2 g/kg, FIG. 2
Description: In this Example, the effect of calcium HMB on lowering glycemic index was evaluated in an in vivo study. Particularly, an acute oral dose of calcium HMB was evaluated to determine whether, if given prior to a glucose load, the dose was able to blunt the initial glucose spike.
Spragley-Dawley (SD) rats (21 days post weaning) (n=7 or 8) were fed an oral dose of calcium HMB at a concentration of: 100 mg/kg (mpk), 300 mpk or 1000 mpk. After thirty minutes, the rats were then orally fed a glucose load consisting of a glucose solution having a concentration of approximately 2 g/kg body weight. A control group (n=4) was not fed the oral dose of calcium HMB prior to the glucose load.
Blood glucose levels of the rats were measured by tail snip using one-touch ultra Glucometer and glucose strips at different time points (0, 15, 30, 45, 60, 90, and 120 minutes).

Structure (SMILES): CC(C)(O)CC(=O)O.[Ca] [Calcium HMB, calcium beta-hydroxy-beta-methylbutyric acid]
- glucose tolerance (blood glucose after oral glucose administration) [1]: improved glucose tolerance
- glucose spike at 15 minutes post dosing ([2]; 1000 mpk oral): significantly reduced glucose spike
- glucose spike at early time points ([2]; high oral doses): significantly blunted glucose spike
